Laboratory results reported in paper PMC9143821, “Design and Synthesis of a Novel 4-aryl-N-(2-alkoxythieno [2,3-b]pyrazine-3-yl)-4-arylpiperazine-1-carboxamide DGG200064 Showed Therapeutic Effect on Colon Cancer through G2/M Arrest” (Pharmaceuticals, 2022).

Columns and labels:
[1] = Pharmacokinetics in ICR mice; type: in vivo; conditions: mouse, plasma, 5 mg/kg
[2] = Pharmacokinetics in SD rats; type: in vivo; conditions: male, Sprague-Dawley, rat, plasma
Protocol: Sprague–Dawley rats (adult males, 250–300 g) were fasted overnight, and the femoral vein (for iv administration of the compound) and jugular vein (for blood sampling) of each rat were cannulated with polyethylene tubing. The selected compounds dissolved in 30% polyethylene glycol (PEG) in saline were administered either intravenously or orally. At various time points after administration, blood samples (0.5 mL) were collected from the jugular vein, transferred to heparin-coated tubes, centrifuged to separate off the plasma. The plasma was stored at −80 °C until assayed. Compound concentrations in plasma were determined by LC/MS/MS analysis (API4000 mass spectrometer, Applied Biosystem, Waltham, MA, USA). Pharmacokinetic parameters were analyzed using the WinNonlin software program. The area under the curve (AUC) was calculated using the trapezoidal rule extrapolated to infinity. The terminal elimination half-life, systemic clearance, and volume of distribution at steady state were determined. The extent of absolute oral bioavailability (F) was estimated by comparing the AUC values after intravenous and oral administration of the compounds.

[3] = logP determination; type: physicochemical
Excerpt: Table 4 Physicochemical Properties of the Lead Compounds 7c. | column: 7c

[4] = system: FBXW7/c-Jun interaction; assay: Immunoprecipitation, ubiquitination and FBXW7/c-Jun interaction; type: cell-based, human
Excerpt: To investigate whether the ubiquitination of c-Jun is suppressed through the inhibition of c-Jun and FBXW7 binding by DGG200064, c-Jun immunoprecipitation was done to observe protein–protein interaction (Figure 4). E3 ligase, such as FBXW7, binds the protein to the ubiquitin chain through covalent bonds and rapidly degrades the protein through 26S proteasome. When treated with MG132 as a proteasome inhibitor, the ubiquitination of c-Jun increased compared to both control HCT116 and DLD1 cells. In contrast, the c-Jun ubiquitination was inhibited by DGG200064. The binding between c-Jun and FBXW7 was reduced with DGG200064 treatment. The FBXW7 protein, also known as CDC4, is a component of the SCF complex ubiquitin ligase and is known as a modulator of several substrates including cyclin E, c-Myc, c-Jun, and Notch. To check the selectivity of DGG200064 towards FBXW7 substrates, the change of c-Jun, cyclin E, and c-Myc by DGG200064 was analyzed. […] Cyclin E immunoprecipitation was done to test whether the ubiquitination of cyclin E by FBXW7 is inhibited by DGG200064 in HCT116 (Figure S2b, Supplementary Materials). There were no changes in cyclin E ubiquitination with DGG200064 treatment.
To identified ubiquitination of c-Jun by DGG200064, HCT116 cells were treated with/without MG132 (10 μM) for 6h, DGG200064 (50 nM) for 18 h. The cell lysate was prepared using RIPA buffer for immunoprecipitation. Each lysate was mixed with antibodies (1 μg/mL) of c-Jun or MYC at 4 °C overnight in immunoprecipitation buffer containing 50 mM Tris-Cl,150 mM NaCl, 1 mM EDTA, 0.5% Triton X-100, pH 7.4, and reacted with 10 μL of protein A/G beads UltraLink Resin (50:50 resin: buffer slurry condition) (Peirce, #35133) for 2 h on RT for precipitation. After reaction and centrifugation at 3000 rpm for 3 min, the immunoprecipitated samples were washed with 500 μL of immunoprecipitation buffer by tapping and centrifuged. The washing was repeated five times before western blotting.

[5] = system: HCT116 cells; assay: FACS analysis of cell cycle distribution; type: cell-based, human; conditions: HCT116, different concentrations, 6 h
Protocol: Many anticancer drugs induce apoptosis through programmed signaling in tumor cells. To test whether the newly developed 4-phenyl-N-(thieno[2,3-b]pyrazin-3-yl)piperazine-1-carboxamide derivatives could induce apoptosis, we conducted a FACS analysis of HCT116 cells with the representative compound 7c or DGG200064. Cell cycle distribution of HCT116 cells was investigated with different concentrations of DGG200064 for 6 h. […] Additionally, DGG200064 was tested for induced G2/M arrest in the other types of colon cancer cells in concentrations of 50 nM for 6 h (Figure 2b).
A colon cancer cells were trypsinized and fixed in 70% (vol/vol) ethanol for DNA staining. For cell cycle analysis, fixed cells were washed with PBS and subsequently resuspended in Propidium Iodide (PI)/RNase staining solution (0.05 mg/mL PI, 0.1 mg/mL RNase A in PBS). FACS analysis was performed using FACSCanto II (BD Biosciences, San Jose, CA, USA).

In the case of `COc1cc(OC)cc(N2CCN(C(=O)Nc3nc4sccc4nc3OC)CC2)c1` [Compound 7c, 4-(3,5-Dimethoxyphenyl)-N-(2-methoxythieno[2,3-b]pyrazin-3-yl)piperazine-1-carboxamide], the AUC(0-inf) ([1]; IV) is reported as 16600 ng·h/mL, the AUC(0-t) ([1]; IV) is reported as 16400 ng·h/mL and the clearance ([1]; IV) is reported as 5.08 mL/min/kg. It also gave a half-life ([1]; IV) of 2.98 h, an AUC(0-inf) ([1]; PO) of 2340 ng·h/mL and an AUC(0-t) ([1]; PO) of 2260 ng·h/mL. It also gave a Cmax ([1]; PO) of 798 ng/mL, a Tmax ([1]; PO) of 0.667 h and a bioavailability ([1]; PO) of 13.8%. The half-life ([1]; PO) was 5.2 h, the AUC(0-inf) ([2]; SD rats, IV, 1 mg/kg) was 708 ng·h/mL and the AUC(0-t) ([2]; SD rats, IV, 1 mg/kg) was 703 ng·h/mL. It also gave a Cmax ([2]; SD rats, IV, 1 mg/kg) of 551 ng/mL, a Tmax ([2]; SD rats, IV, 1 mg/kg) of 0.083 h and a clearance ([2]; SD rats, IV, 1 mg/kg) of 25.2 mL/min/kg. The half-life ([2]; SD rats, IV, 1 mg/kg) was 1.11 h, the Vd ([2]; SD rats, IV, 1 mg/kg, read-out: Vss) was 2.31 L/kg and the AUC(0-inf) ([2]; SD rats, PO, 5 mg/kg) was 964 ng·h/mL. It also gave an AUC(0-t) ([2]; SD rats, PO, 5 mg/kg) of 707 ng·h/mL, a Cmax ([2]; SD rats, PO, 5 mg/kg) of 76 ng/mL and a Tmax ([2]; SD rats, PO, 5 mg/kg) of 4.05 h. For the same compound, the half-life ([2]; SD rats, PO, 5 mg/kg) was 7.5 h, the bioavailability ([2]; SD rats, PO, 5 mg/kg, read-out: F) was 20.1% and the Cmax ([2]; no unit, species or route stated in b12 (7c value equals SD rats PO of Table 3)) was 76 ng/mL. The bioavailability ([2]; species and route not stated in b12 (7c value equals SD rats PO of Table 3), read-out: bioavailability (F)) was 20.1%, the logP [3] was 2.63 and the “cyclin E ubiquitination” value ([4]; HCT116, cyclin E immunoprecipitation) was “no changes”. For the same compound, the “binding between c-Jun and FBXW7” value ([4]; HCT116 and DLD1, 50 nM, 18 h, c-Jun immunoprecipitation) was “reduced”, the c-Jun ubiquitination ([4]; HCT116 and DLD1, DGG200064 50 nM 18 h, MG132 10 μM 6 h) was “inhibited” and the G2/M arrest [5] was “induced G/2M arrest in a dose-dependent manner”. The apoptosis [5] was “did not cause apoptosis”.
